# Measured values as given in patent publication US8759318B2, “Phosphoramidate derivatives of guanosine nucleoside compounds for treatment of viral infections” (Inhibitex, Inc., priority 2009, dated 2014).
# Experiments:
# [1] = system: HCV replicon (Genotype 1b); assay: Luciferase genotype 1b replicon potency assay; conditions: Hepatitis C virus, GETYPE1B, read-out: IC50 μM, HCV genotype 1b luciferase replicon, Renilla luciferase reporter
# in vitro = conditions: human
Compound,IC50 [1],CC50 (in vitro)
"COc1nc(N)nc2c1ncn2C1O[C@H](COP(=O)(N[C@H](C(=O)OC2CCC2)C(C)C)Oc2cccc3ccccc23)[C@@H](O)[C@@]1(C)O (stereo partly drawn) [Example 44, (2S)-cyclobutyl 2-((((2R,3R,4R)-5-(2-amino-6-methoxy-9H-purin-9-yl)-3,4-dihydroxy-4-methyltetrahydrofuran-2-yl)methoxy)(naphthalen-1-yloxy)phosphorylamino)-3-methylbutanoate]",0.39 µM,64000 nM
"CSc1nc(N)nc2c1ncn2C1O[C@H](COP(=O)(N[C@@H](C)C(=O)OCC(C)(C)C)Oc2cccc3ccccc23)[C@@H](O)[C@@]1(C)O (stereo partly drawn) [Example 90, (2S)-neopentyl 2-((((2R,3R,4R)-5-(2-amino-6-(methylthio)-9H-purin-9-yl)-3,4-dihydroxy-4-methyltetrahydrofuran-2-yl)methoxy)(naphthalen-1-yloxy)phosphorylamino)propanoate]",0.033 µM,41000 nM
"COc1nc(N)nc2c1ncn2C1O[C@H](COP(=O)(N[C@H](C(=O)OCC2CC2)C(C)C)Oc2cccc3ccccc23)[C@@H](O)[C@@]1(C)O (stereo partly drawn) [Example 43, (2S)-cyclopropylmethyl 2-((((2R,3R,4R)-5-(2-amino-6-methoxy-9H-purin-9-yl)-3,4-dihydroxy-4-methyltetrahydrofuran-2-yl)methoxy) (naphthalen-1-yloxy)phosphorylamino)-3-methylbutanoate]",0.18 µM,6000 nM
"CNc1nc(N)nc2c1ncn2C1O[C@H](COP(=O)(N[C@@H](C)C(=O)O[C@@H](C)c2ccccc2)Oc2cccc3ccccc23)[C@@H](O)[C@@]1(C)O (stereo partly drawn) [Example 82, (2S)-((S)-1-phenylethyl) 2-((((2R,3R,4R)-5-(2-amino-6-(methylamino)-9H -purin-9-yl)-3,4-dihydroxy-4-methyltetrahydrofuran-2-yl)methoxy) (naphthalen-1-yloxy)phosphorylamino)propanoate]",0.11 µM,54000 nM
COc1nc(N)nc2c1ncn2C1O[C@H](COP(=O)(N[C@H](C(=O)OCC(C)(C)C)C(C)C)Oc2cc(C(C)(C)C)cc3ccc(C(C)(C)C)cc23)[C@@H](O)[C@@]1(C)O (some centres unmarked) [Example 56],2.1 µM,13000 nM
"COC(=O)[C@@H](C)c1ccc2cc(OP(=O)(N[C@@H](C)C(=O)OC3CCOCC3)OC[C@H]3OC(n4cnc5c(OC)nc(N)nc54)[C@](C)(O)[C@@H]3O)ccc2c1 (stereo partly drawn) [Example 29, (2S)-methyl 2-(6-((((2R,3R,4R)-5-(2-amino-6-methoxy-9H-purin-9-yl)-3,4-dihydroxy-4-methyltetrahydrofuran-2-yl)methoxy)((S)-1-oxo-1-(tetrahydro-2H-pyran-4-yloxy)propan-2-ylamino)phosphoryloxy)naphthalen-2-yl)propanoate]",0.11 µM,> 100000 nM
"COc1nc(N)nc2c1ncn2C1O[C@H](COP(=O)(N[C@@H](C)C(=O)OCC(C)(C)C)Oc2ccccc2)[C@@H](O)[C@@]1(C)O (stereo partly drawn) [Example 35, (2S)-neopentyl 2-((((2R,3R,4R)-5-(2-amino-6-methoxy-9H-purin-9-yl)-3,4-dihydroxy-4-methyltetrahydrofuran-2-yl)methoxy)(phenoxy)phosphorylamino)propanoate]",0.049 µM,38000 nM
"COc1nc(N)nc2c1ncn2C1O[C@H](COP(=O)(N[C@H](C(=O)OCC(C)(C)C)C(C)C)Oc2ccc3ncccc3c2)[C@@H](O)[C@@]1(C)O (stereo partly drawn) [Example 52, (2S)-neopentyl 2-((((2R,3R,4R)-5-(2-amino-6-methoxy-9H-purin-9-yl)-3,4-dihydroxy-4-methyltetrahydrofuran-2-yl)methoxy)(quinolin-6-yloxy)phosphorylamino)-3-methylbutanoate]",0.19 µM,> 100000 nM
"COc1nc(N)nc2c1ncn2C1O[C@H](COP(=O)(N[C@H](C(=O)O[C@@H](C)c2ccc(Br)cc2)C(C)C)Oc2cccc3ccccc23)[C@@H](O)[C@@]1(C)O (stereo partly drawn) [Example 39, (2S)-((S)-1-(4-bromophenyl)ethyl) 2-((((2R,3R,4R)-5-(2-amino-6-methoxy-9H-purin-9-yl)-3,4-dihydroxy-4-methyltetrahydrofuran-2-yl)methoxy)(naphthalen-1-yloxy)phosphorylamino)-3-methylbutanoate]",2.2 µM,900 nM
"COC(=O)[C@@H](NP(=O)(OC[C@H]1OC(n2cnc3c(OC)nc(N)nc32)[C@](C)(O)[C@@H]1O)Oc1cccc2ccccc12)C(C)C (stereo partly drawn) [Example 41, (2S)-methyl 2-((((2R,3R,4R)-5-(2-amino-6-methoxy-9H-purin-9-yl)-3,4-dihydroxy-4-methyltetrahydrofuran-2-yl)methoxy)(naphthalen-1-yloxy)phosphorylamino)-3-methylbutanoate]",0.38 µM,22000 nM
"COC(=O)[C@@H](C)c1ccc2cc(OP(=O)(N[C@@H](C)C(=O)OCC(C)(C)C)OC[C@H]3OC(n4cnc5c(OC)nc(N)nc54)[C@](C)(O)[C@@H]3O)ccc2c1 (stereo partly drawn) [Example 28, (2S)-methyl 2-(6-((((2R,3R,4R)-5-(2-amino-6-methoxy-9H-purin-9-yl)-3,4-dihydroxy-4-methyltetrahydrofuran-2-yl)methoxy)((S)-1-(neopentyloxy)-1-oxopropan-2-ylamino)phosphoryloxy)naphthalen-2-yl)propanoate]",0.023 µM,19000 nM
"COc1nc(N)nc2c1ncn2C1O[C@H](COP(=O)(N[C@@H](C)C(=O)OCc2ccccc2)Oc2cccc3ccccc23)C[C@@]1(C)O (stereo partly drawn) [Example 95, (2S)-benzyl 2-((((2S,4R)-5-(2-amino-6-methoxy-9H-purin-9-yl)-4-hydroxy-4-methyltetrahydrofuran-2-yl)methoxy)(naphthalen-1-yloxy)phosphorylamino)propanoate]",0.9 µM,70000 nM
"COc1nc(N)nc2c1ncn2C1O[C@H](COP(=O)(N[C@@H](C)C(=O)OCc2ccc(F)cc2F)Oc2cccc3ccccc23)[C@@H](O)[C@@]1(C)O (stereo partly drawn) [Example 14, (2S)-2,4-difluorobenzyl 2-((((2R,3R,4R)-5-(2-amino-6-methoxy-9H-purin-9-yl)-3,4-dihydroxy-4-methyltetrahydrofuran-2-yl)methoxy)(naphthalen-1-yloxy)phosphorylamino)propanoate]",0.04 µM,15000 nM
"COC(=O)[C@@H](C)c1ccc2cc(OP(=O)(N[C@H](C(=O)OCC(C)(C)C)C(C)C)OC[C@H]3OC(n4cnc5c(OC)nc(N)nc54)[C@](C)(O)[C@@H]3O)ccc2c1 (stereo partly drawn) [Example 48, (2S)-neopentyl 2-((((2R,3R,4R)-5-(2-amino-6-methoxy-9H-purin-9-yl)-3,4-dihydroxy-4-methyltetrahydrofuran-2-yl)methoxy) (6-((S)-1-methoxy-1-oxopropan-2-yl)naphthalen-2-yloxy)phosphorylamino)-3-methylbutanoate]",0.21 µM,29000 nM
COc1nc(N)nc2c1ncn2[C@@H]1O[C@H](COP(=O)(N[C@@H](CC(C)C)C(=O)OCC(C)(C)C)Oc2cccc3ccccc23)[C@@H](O)[C@@]1(C)O (some centres unmarked) [Example 61],0.071 µM,14000 nM
COc1nc(N)nc2c1ncn2C1O[C@H](COP(=O)(N[C@H](C(=O)OCC(C)(C)C)c2ccccc2)Oc2cccc3ccccc23)[C@@H](O)[C@@]1(C)O (some centres unmarked) [Example 66],0.032 µM,19000 nM
"CCCOC(=O)[C@H](C)NP(=O)(OC[C@H]1OC(n2cnc3c(OC)nc(N)nc32)[C@](C)(O)[C@@H]1O)Oc1cccc2ccccc12 (stereo partly drawn) [Example 17, (2S)-propyl 2-((((2R,3R,4R)-5-(2-amino-6-methoxy-9H-purin-9-yl)-3,4-dihydroxy-4-methyltetrahydrofuran-2-yl)methoxy)(naphthalen-1-yloxy)phosphorylamino)propanoate]",0.029 µM,12000 nM
"CCOc1nc(N)nc2c1ncn2C1O[C@H](COP(=O)(N[C@@H](C)C(=O)OCc2ccc(F)cc2F)Oc2cccc3ccccc23)[C@@H](O)[C@@]1(C)O (stereo partly drawn) [Example 74, (2S)-2,4-difluorobenzyl 2-((((2R,3R,4R)-5-(2-amino-6-ethoxy-9H-purin-9-yl)-3,4-dihydroxy-4-methyltetrahydrofuran-2-yl)methoxy)(naphthalen-1-yloxy)phosphorylamino)propanoate]",0.034 µM,17000 nM
"COc1nc(N)nc2c1ncn2C1O[C@H](COP(=O)(N[C@H](C(=O)OCc2ccc(F)cc2F)C(C)C)Oc2ccc3ncccc3c2)[C@@H](O)[C@@]1(C)O (stereo partly drawn) [Example 51, (2S)-2,4-difluorobenzyl 2-((((2R,3R,4R)-5-(2-amino-6-methoxy-9H-purin-9-yl)-3,4-dihydroxy-4-methyltetrahydrofuran-2-yl)methoxy)(quinolin-6-yloxy)phosphorylamino)-3-methylbutanoate]",0.11 µM,> 100000 nM
"COc1nc(N)nc2c1ncn2C1O[C@H](COP(=O)(N[C@H](C(=O)OCC(C)(C)C)C(C)C)Oc2cccc3ncccc23)[C@@H](O)[C@@]1(C)O (stereo partly drawn) [Example 50, (2S)-neopentyl 2-((((2R,3R,4R)-5-(2-amino-6-methoxy-9H-purin-9-yl)-3,4-dihydroxy-4-methyltetrahydrofuran-2-yl)methoxy)(quinolin-5-yloxy)phosphorylamino)-3-methylbutanoate]",0.55 µM,> 100000 nM
COc1nc(N)nc2c1ncn2C1O[C@H](COP(=O)(N[C@@H](CCSC)C(=O)OCC(C)(C)C)Oc2cccc3ccccc23)[C@@H](O)[C@@]1(C)O (some centres unmarked) [Example 60],0.06 µM,28000 nM
"COc1nc(N)nc2c1ncn2C1O[C@H](COP(=O)(N[C@@H](C)C(=O)OCc2ccc(F)cc2F)Oc2cccc3ncccc23)[C@@H](O)[C@@]1(C)O (stereo partly drawn) [Example 30, (2S)-2,4-difluorobenzyl 2-((((2R,3R,4R)-5-(2-amino-6-methoxy-9H-purin-9-yl)-3,4-dihydroxy-4-methyltetrahydrofuran-2-yl)methoxy)(quinolin-5-yloxy)phosphorylamino)propanoate]",0.13 µM,110000 nM
